Results published in patent US20140005070A1, “MARKERS ASSOCIATED WITH CYCLIN-DEPENDENT KINASE INHIBITORS” (Novartis AG, priority 2011, published 2014).

Experiments:
MEPCE [1] = test: Dog toxicology study, TaqMan mRNA in white blood cells after CDKI(7): MEPCE; assay type: in vivo
Method: As part of a dog toxicology study, CDKI(7) was administered to dogs. White blood cells were harvested and MEPCE, MYC and MCL1 gene expression was assessed as PD markers. mRNA levels of each of these PD markers were measured by TaqMan® at various time points after CDKI(7) treatment.
The study had three groups of three dogs each. Dogs in Group 1 (#101, #102, and #103) were treated with CDKI(7) at 0.5 mg/kg, dogs in Group 2 (#104, #105, and #106) were treated at 1 mg/kg CDKI(7) and dogs in Group 3 (#107, #108, and #109) were treated at 2 mg/kg CDKI(7). Samples were collected before treatment (0 hour), 3 hours, 7 hours and 24 hours after treatment for a total of 12 samples per group. Blood samples were received frozen in QIAGEN RNA protect® Animal Blood tubes (Cat. # 76554 QIAGEN-Valencia, Calif., USA). RNA samples were extracted using the QIAGEN RNeasy® Protect Animal Blood kit (Cat. # 73224). RNA samples were quantified using the RNA Quant-iT RNA® assay from Invitrogen (Cat. # Q32852 Invitrogen—Grand Island, N.Y., USA) and read on an Invitrogen Qubit fluorometer® (Cat. # Q32857). First strand cDNA synthesis was performed on 500 ng of RNA in a reaction volume of 20 μl using a High Capacity cDNA Reverse Transcription Kit® from Applied Biosystems (Cat. # 4368814 Applied Biosystems, Carlsbad, Calif., USA). The cDNA samples were then diluted to obtain a 10 ng cDNA input for the TaqMan® reaction. TaqMan® reactions were run in triplicates using a TaqMan® Gene Expression Master Mix from Applied Biosystems (Cat. # 4369016) on an ABI 7500® machine. The 18S rRNA level was used as an endogenous control for variations in cDNA input. The relative quantification method was used to analyze the data; this method uses one sample as a calibrator sample and express mRNA levels relative to that sample. The results were expressed as RQ values (Relative Quantification) with RQ Min and RQ Max values determining a 95% confidence interval for the real RQ value. The samples were grouped according to the dose and each group was treated as a separate experiment with one of the pre-dose samples used as a calibrator sample. The logarithm of the RQ values are plotted so that increases or decreases from the initial value can be more easily represented; on a logarithmic scale: a 10-fold increase or 10-fold decrease in RQ value are represented as +1 and −1 respectively.
The mRNA levels were determined by TaqMan® using the relative quantification method. The calibrator samples are dog #101 at 0 hour timepoint for the 0.5 mg/kg dose of CDKI(7), dog #104 at 0 hour timepoint for the 1 mg/kg dose and dog #107 at 0 hour timepoint for the CDKI(7) 2 mg/kg dose. The logarithm (base 10) of the RQ values is plotted with the error bars representing the 95% confidence interval. […] The amplitude and the duration of the down regulation are dose-dependent; at 0.5 mg/kg CDKI(7) the maximum down regulation is 3.2-fold at 3 hours, at 1 mg/kg CDKI(7) it is 5.2-fold at 7 hours and at 2 mg/kg it is 14-fold at 7 hours.

MEPCE [2] = test: Western blot of MEPCE protein in NCI-H929 cells (FIG. 4); assay type: cell-based
Method: After treatment with a CDKI, cells were lysed in modified RIPA buffer containing 50 mM TRIS pH 7.4, 150 mM NaCl, 1 mM EDTA, 1% Brij-35, 0.1% deoxycholate, protease inhibitors (Roche Molecular Biochemicals, Mannheim, Germany). SDS-PAGE (4-12% gel) was used to resolve the proteins in the lysate. After electrophoresis, the proteins were electrotransferred onto a polyvinylidene fluoride microporous membrane and immunodetected using standard procedures. FIG. 4 is a Western blot of the multiple myeloma line NCI-H929, treated with CDKI(7) or DMSO and gene expression analyzed at certain time points during the treatment. […] Thus, the reduction in expression of genes in response to CDKI seen at the mRNA level by microarray is confirmed at the protein level by Western blotting.

## O=C(Nc1cc(-c2cccc(NCC3CCOCC3)n2)c(Cl)cn1)[C@@H]1CCCNC1 [CDKI(7)]
MEPCE [1]; 0.5 mg/kg, at 3 hours
  maximum down regulation of MEPCE mRNA: 3.2 fold
MEPCE [1]; 1 mg/kg, at 7 hours
  maximum down regulation of MEPCE mRNA: 5.2 fold
MEPCE [1]; 2 mg/kg, one of the dogs (#109)
  MEPCE mRNA levels at 24 hours: some degree of down regulation
MEPCE [1]; 2 mg/kg, at 7 hours
  maximum down regulation of MEPCE mRNA: 14 fold
MEPCE [1]; 0.5 and 1 mg/kg
  MEPCE mRNA levels at 24 hours: back to pre-treatment levels
MEPCE [1]; all three doses (0.5, 1, 2 mg/kg), FIG. 6
  MEPCE mRNA regulation: clear down regulation
MEPCE [2]; NCI-H929, Western blot, 16 hour
  MEPCE protein expression at the 16 hour time point: very little to undetectable levels of protein expression
MEPCE [2]; NCI-H929 multiple myeloma line, Western blot, versus DMSO
  MEPCE protein expression over time: reduced over time
